{"source": "patent US5087417A", "about": "“Control of senescence in fruits, vegetables and flowers” (University of Waterloo, priority 1986, dated 1992)", "key": {"lipoxygenase (LOX) [1]": {"system": "lipoxygenase (LOX)", "assay": "Lipoxygenase activity, bean cotyledon membrane and cytosol", "format": "biochemical", "excerpt": "(§1) This Example illustrates the inhibition of lipoxygenase (LOX) activity by the glucose ester of ferulic acid."}, "[2]": {"assay": "Radical scavenging in a chemical system", "details": "tests with a chemical system"}, "[3]": {"system": "Microsomes from senescing carnation flowers", "assay": "Inhibition of ethylene formation in vitro in carnation microsomes", "format": "biochemical", "description": "This Example illustrates the inhibition of ethylene formation in vitro by the glucose ester of ferulic acid.\nMicrosomes from senescing carnation flowers were treated with varying quantities of the glucose ester of ferulic acid, isolated as described in Example 1, and the production of ethylene was determined as a percentage of the control production of ethylene in the absence of added ferulic acid ester"}, "lipoxygenase (LOX) [4]": {"system": "lipoxygenase (LOX)", "assay": "Lipoxygenase activity, carnation microsomal membranes", "format": "biochemical", "excerpt": "as §1"}, "[5]": {"system": "petals of carnation flowers", "assay": "In vivo prevention of ethylene formation in carnation petals after incubation with ACC", "details": "1 mM taken up transpirationally", "description": "This Example illustrates the use of the glucose ester of ferulic acid for in vivo prevention of ethylene formation in carnations.\nThe glucose ester of ferulic acid (1 mM), isolated as described in Example 1, was taken up transpirationally into petals of carnation flowers. Ethylene production was determined as a percentage of the ethylene produced by untreated control petals at various times after incubation with ACC."}}, "data": [{"smiles": "COc1cc(/C=C/C(=O)O[C@@H]2O[C@H](CO)[C@@H](O)[C@H](O)[C@H]2O)ccc1O", "note": "[glucose ester of ferulic acid]", "values": [{"measurement": "effect against LOX from other plant systems including bean cotyledons (in words)", "setting": "lipoxygenase (LOX) [1]", "result": "effective"}, {"measurement": "Lipoxygenase activity (% of control)", "setting": "lipoxygenase (LOX) [1]; 10 μg cytosol protein of 9 d bean cotyledon, 50 μM", "result": "48.4 % of control"}, {"measurement": "Lipoxygenase activity (% of control)", "setting": "lipoxygenase (LOX) [1]; 10 μg cytosol protein of 9 d bean cotyledon, 100 μM", "result": "35.9 % of control"}, {"measurement": "Lipoxygenase activity (% of control)", "setting": "lipoxygenase (LOX) [1]; 60 μg membrane protein of 9 d bean cotyledon, 50 μM", "result": "46.3 % of control"}, {"measurement": "Lipoxygenase activity (% of control)", "setting": "lipoxygenase (LOX) [1]; 60 μg membrane protein of 9 d bean cotyledon, 100 μM", "result": "37.8 % of control"}, {"measurement": "effect on enzyme activity in membrane and cytosol preparations (in words)", "setting": "lipoxygenase (LOX) [1]; 100 μm concentrations, all experiments", "result": "caused an inhibition of enzyme activity"}, {"measurement": "radical scavenger activity (in words)", "setting": "[2]", "result": "shown promise as a full radial scavenger"}, {"measurement": "Ethylene Production", "setting": "[3]; Control + 10 μM of Additive", "result": "0.518 ± 0.019", "unit": "n1.100 μg^-1 protein h^-1"}, {"measurement": "Ethylene Production % Control", "setting": "[3]; Control + 10 μM of Additive", "result": 53.9, "unit": "%"}, {"measurement": "Ethylene Production", "setting": "[3]; Control + 50 μM of Additive", "result": "0.014 ± 0.005", "unit": "n1.100 μg^-1 protein h^-1"}, {"measurement": "Ethylene Production % Control", "setting": "[3]; Control + 50 μM of Additive", "result": 2.0, "unit": "%"}, {"measurement": "Ethylene Production", "setting": "[3]; Control + 100 μM of Additive", "result": 0, "unit": "n1.100 μg^-1 protein h^-1"}, {"measurement": "Ethylene Production % Control", "setting": "[3]; Control + 100 μM of Additive", "result": 0, "unit": "%"}, {"measurement": "ethylene formation (in words)", "setting": "[3]; concentration of 100 μM", "result": "zero"}, {"measurement": "inhibition of lipoxygenase activity derived from carnation (in words)", "setting": "lipoxygenase (LOX) [4]; 40 μM solution", "result": "almost complete inhibition"}, {"measurement": "Lipoxygenase activity (% of control)", "setting": "lipoxygenase (LOX) [4]; 100 μg membrane protein from Stage IV carnation, 40 μM", "result": "1.8 % of control"}, {"measurement": "% Inhibition of ethylene production", "setting": "[5]; 12 hrs after treatment", "result": 100, "unit": "%"}, {"measurement": "% Inhibition of ethylene production", "setting": "[5]; 16 hrs after treatment", "result": 97.3, "unit": "%"}, {"measurement": "% Inhibition of ethylene production", "setting": "[5]; 21 hrs after treatment", "result": 90.4, "unit": "%"}, {"measurement": "% Inhibition of ethylene production", "setting": "[5]; 26 hrs after treatment", "result": 81.7, "unit": "%"}]}]}
